Reference: publication PMC11514314, “The aquastatin biosynthetic gene cluster encodes a versatile polyketide synthase capable of synthesising heteromeric depsides with diverse alkyl side chains” (Chemical Science, 2024)
Converted amounts (≈) assume the structure as drawn. Like-named read-outs stand apart in the source and are kept apart here.

Assays:
MRSA (ATCC 33592) = assay: Antibacterial ProTOX bioassay, MRSA; format: cell-based, methicillin-resistant S. aureus; conditions: MRSA ATCC 33592, 48 h, 28 °C; for MIC: Staphylococcus aureus, read-out: Minimum inhibitory concentration (MIC) MRSA
Experimental: (§1) 12. Bioactivity screening.
(§2) Purified metabolites were dissolved in DMSO to create stock solutions of 10,000 µg/mL. An aliquot from each stock solution was transferred to the first well of Rows B to G on a 96-well microtitre plate and then serially diluted two-fold with DMSO across the 12 wells of the plate to achieve a 2,048-fold concentration gradient. Bioassay medium was added to an aliquot of each diluted solution to achieve a 100-fold dilution in the final bioassay. This […]
(§3) 0.1 µg/mL in 2% DMSO for yeasts. Row A served as a control with no test compound (indicating no inhibition), and Row H was left uninoculated (serving as a control for complete inhibition).
(§4) B. subtilis (ATCC 6633), S. aureus (ATCC 25923) and MRSA (ATCC 33592) were used as indicator species for antibacterial activity, employing the ProTOX bioassay platform. A bacterial suspension (50 mL in a 250 mL flask) was prepared in nutrient media by cultivating it for 24 h at 250 rpm and 28 °C. The suspension was diluted to an absorbance of 0.01 absorbance units per mL, and 10 µL aliquots were added to the wells of a 96-well microtitre plate containing the test compounds dispersed in 190 µL of nutrient broth (Amyl) with 10 µL resazurin (12.5 µg/mL). The plates were incubated at 28 °C for 48 h, during which the positive control wells changed colour from blue to light pink. Tetracycline was employed as a control for B. subtilis, while ampicillin was used for S. aureus and MRSA. MIC endpoints were determined visually. Absorbance was measured using a Multiskan Skyhigh Microplate Spectrophotometer (Thermo Fisher Scientific) at 605 nm.

[1] = system: fatty acid synthase II (FAS II); conditions: cited from earlier work
[2] = system: NFF (ATCC PCS-201) human neonatal foreskin fibroblast cells; assay: Cytotoxicity resazurin assay, NFF cells; format: cell-based; conditions: for IC50: Homo sapiens, 96 h, read-out: IC50 NFF
Experimental: as §1, §2
(§5) 0.1 µg/mL in 2% DMSO for yeasts. Row A served as a control with no test compound (indicating no inhibition), and Row H was left uninoculated (serving as a control for complete inhibition). […]
(§6) MIC endpoints were determined visually. Absorbance was measured using a Multiskan Skyhigh […]
as §6
(§7) NS-1 (ATCC TIB-18) mouse myeloma and NFF (ATCC PCS -201) human neonatal foreskin fibroblast cells were each inoculated in 96-well microtitre plates (190 µL) at 50,000 cells/mL in DMEM (Dulbecco's Modified Eagle Medium + 10% fetal bovine serum (FBS) + 1% penicillin/streptomycin (10,000 U/mL / 10,000 µg/mL, Life Technologies Cat. No. 15140122), together with resazurin (250 µg/mL; 10 µL) and incubated in 37 °C (5% CO2) incubator. The plates were incubated for 96 h during which time the positive control wells change colour from a blue to pink colour. The absorbance of each well was measured using Multiskan Skyhigh Microplate Spectrophotometer (Thermofisher Scientific) at 605 nm. Sparsomycin was used as a control. The IC50 values were determined using a sigmoidal dose-response model with variable slope in GraphPad Prism 8.

[3] = system: NS-1 (ATCC TIB-18) mouse myeloma cells; assay: Cytotoxicity resazurin assay, NS-1 cells; format: cell-based; conditions: for IC50: read-out: IC50 NS-1; for cytotoxicity against NS-1 cells (in words): mouse myeloma NS-1
Experimental: as §1, §2, §5, §6, §6, §7

[4] = system: methicillin-resistant S. aureus (MRSA); design: method as in PMID 19952429; conditions: cited from earlier work
B. subtilis (ATCC 6633) = assay: Antibacterial ProTOX bioassay, B. subtilis; format: cell-based; conditions: Bacillus subtilis, ATCC6633; B. subtilis ATCC 6633, 48 h, 28 °C; read-out: Minimum inhibitory concentration (MIC) B. subtilis
Experimental: as §1, §2, §3, §4

[5] = system: Saccharomyces cerevisiae (ATCC 9763); assay: Antifungal EuTOX bioassay, S. cerevisiae; format: cell-based; conditions: S. cerevisiae ATCC 9763, 48 h; for MIC: Saccharomyces cerevisiae, ATCC9763, read-out: Minimum inhibitory concentration (MIC) S. cerevisiae
Experimental: as §1, §2, §5, §6
Saccharomyces cerevisiae (ATCC 9763) was used as indicator species for antifungal activity, employing the EuTOX bioassay platform. A yeast suspension (50 mL in a 250 mL flask) was prepared in 1% malt extract broth by cultivating it for 24 h at 250 rpm and 24 °C. The suspension was diluted to absorbances of 0.03 absorbance units per mL and 30 µL were added to the wells of a 96-well microtitre plate containing the test compounds dispersed in 100 µL of malt extract agar with bromocresol green (50 µg/mL). The plates were incubated at 28 °C for 48 h, during which the positive control wells changed colour from blue to yellow. Blasticidin S HCl was used

S. aureus (ATCC 25923) = assay: Antibacterial ProTOX bioassay, S. aureus; format: cell-based; conditions: Staphylococcus aureus, ATCC25923; S. aureus ATCC 25923, 48 h, 28 °C; read-out: Minimum inhibitory concentration (MIC) S. aureus
Experimental: as §1, §2, §3, §4

[6] = system: Saccharomyces cerevisiae (ATCC 9763); conditions: previously reported; cited from earlier work
[7] = neonatal foreskin fibroblast NFF
[8] = NS1, mouse myeloma NS-1 ATCC TIB-18, 96 h

Row | Compound | MIC (MRSA (ATCC 33592)) | FAS II inhibitory activity [1] | IC50 [2, 7] | IC50 [3, 8] | antibacterial activity against MRSA [4] | MIC (B. subtilis (ATCC 6633)) | MIC [5] | MIC (S. aureus (ATCC 25923)) | cytotoxicity against NFF cells (in words) [2] | cytotoxicity against NS-1 cells (in words) [3] | Minimum inhibitory concentration (MIC) MRSA (MRSA (ATCC 33592)) | Minimum inhibitory concentration (MIC) S. cerevisiae [5] | IC50 ([2]; Fibroblast) | IC50 ([3]; Mus musculus, NS1, 96 h) | antifungal activity against S. cerevisiae (in words) [6]
1 | CCCCCCCCCCCCCCCc1cc(O)cc(O)c1C(=O)Oc1cc(C)c(C(=O)O)c(O)c1 [1b, Aquastatin B] | > 50 µg/mL | do not demonstrate | > 100 µg/mL | > 50 µg/mL | demonstrated antibacterial activity | 1.6 µg/mL (≈ 3.11 µM) | > 200 µg/mL | > 100 µg/mL |  |  |  |  |  |  | 
2 | CCCCCCCCCCCCCCCc1cc(O[C@@H]2O[C@H](CO)[C@H](O)[C@H](O)[C@H]2O)cc(O)c1C(=O)OC [1c, aquastatin C] | > 100 µg/mL | do not demonstrate | > 100 µg/mL | > 100 µg/mL |  | > 100 µg/mL | > 200 µg/mL | > 100 µg/mL |  |  |  |  |  |  | 
3 | CCCCCCCCCCCCCCCc1cc(O[C@@H]2O[C@H](CO)[C@H](O)[C@H](O)[C@H]2O)cc(O)c1C(=O)O [1d, Aquastatin D] | 6.3 µg/mL (≈ 12 µM) |  | > 100 µg/mL | > 50 µg/mL |  | 3.1 µg/mL (≈ 5.89 µM) | 3.1 µg/mL (≈ 5.89 µM) | 12.5 µg/mL (≈ 23.7 µM) | did not exhibit cytotoxicity | did not exhibit cytotoxicity |  |  |  |  | 
4 | CCCCCCCCCCCCCCCc1cc(O)cc(O)c1C(=O)OC [1e, aquastatin E] | > 100 µg/mL |  | > 100 µg/mL | > 100 µg/mL |  | > 100 µg/mL | > 200 µg/mL | > 100 µg/mL |  |  |  |  |  |  | 
5 | CCCCCCCCCCCCCCCc1cc(O)cc(O)c1C(=O)O [1f, corticiolic acid] | 3.1 µg/mL (≈ 8.5 µM) |  | > 100 µg/mL | 25 µg/mL (≈ 68.6 µM) |  | 0.8 µg/mL (≈ 2.19 µM) | > 200 µg/mL | 3.1 µg/mL (≈ 8.5 µM) |  |  |  |  |  |  | 
6 | CCCCCCCCCCCCCc1cc(O[C@@H]2O[C@H](CO)[C@H](O)[C@H](O)[C@H]2O)cc(O)c1C(=O)Oc1cc(C)c(C(=O)O)c(O)c1 [3a, Ariestatin A] | 6.3 µg/mL (≈ 9.71 µM) |  | > 100 µg/mL | > 100 µg/mL |  | 1.6 µg/mL (≈ 2.47 µM) | > 200 µg/mL | 3.1 µg/mL (≈ 4.78 µM) |  |  |  |  |  |  | 
7 | CCCCCCCCCCCCCc1cc(O)cc(O)c1C(=O)Oc1cc(C)c(C(=O)O)c(O)c1 [3b, Ariestatin B] | 12.5 µg/mL (≈ 25.7 µM) |  | > 50 µg/mL | > 50 µg/mL |  | 1.6 µg/mL (≈ 3.29 µM) | > 200 µg/mL | 12.5 µg/mL (≈ 25.7 µM) |  |  |  |  |  |  | 
8 | CCCCCCCCCCCCCc1cc(O[C@@H]2O[C@H](CO)[C@H](O)[C@H](O)[C@H]2O)cc(O)c1C(=O)OC [3c, Ariestatin C] | > 100 µg/mL |  | > 100 µg/mL | 0.2 µg/mL (≈ 0.39 µM) |  | > 100 µg/mL | > 200 µg/mL | > 100 µg/mL | no activity was detected | cytotoxicity was observed |  |  |  |  | 
9 | CCCCCCCCCCCCCc1cc(O[C@@H]2O[C@H](CO)[C@H](O)[C@H](O)[C@H]2O)cc(O)c1C(=O)O [3d, Ariestatin D] | > 50 µg/mL |  | > 50 µg/mL | > 50 µg/mL |  | 25 µg/mL (≈ 50.1 µM) | 3.1 µg/mL (≈ 6.22 µM) | > 50 µg/mL | did not exhibit cytotoxicity | did not exhibit cytotoxicity |  |  |  |  | 
10 | CCCCCC/C=C\CCCCCCCc1cc(O[C@@H]2O[C@H](CO)[C@H](O)[C@H](O)[C@H]2O)cc(O)c1C(=O)Oc1cc(C)c(C(=O)O)c(O)c1 [4a, Capricostatin A] | 6.3 µg/mL (≈ 9.34 µM) |  | > 100 µg/mL | > 100 µg/mL |  | 1.6 µg/mL (≈ 2.37 µM) | > 200 µg/mL | 3.1 µg/mL (≈ 4.59 µM) |  |  |  |  |  |  | 
11 | CCCCCC/C=C\CCCCCCCc1cc(O)cc(O)c1C(=O)Oc1cc(C)c(C(=O)O)c(O)c1 [4b, Capricostatin B] | 12.5 µg/mL (≈ 24.4 µM) |  | > 100 µg/mL | 0.05 µg/mL (≈ 0.0975 µM) |  | 1.6 µg/mL (≈ 3.12 µM) | > 200 µg/mL | 12.5 µg/mL (≈ 24.4 µM) |  |  |  |  |  |  | 
12 | CCCCCC/C=C\CCCCCCCc1cc(O[C@@H]2O[C@H](CO)[C@H](O)[C@H](O)[C@H]2O)cc(O)c1C(=O)OC [4c, capricostatin C] | > 100 µg/mL |  | 6.3 µg/mL (≈ 11.7 µM) | 6.3 µg/mL (≈ 11.7 µM) |  | > 100 µg/mL | > 200 µg/mL | > 100 µg/mL |  |  |  |  |  |  | 
13 | CCCCCC/C=C\CCCCCCCc1cc(O[C@@H]2O[C@H](CO)[C@H](O)[C@H](O)[C@H]2O)cc(O)c1C(=O)O [4d, Capricostatin D] | > 50 µg/mL |  | > 100 µg/mL | > 50 µg/mL |  | 25 µg/mL (≈ 47.7 µM) | 3.1 µg/mL (≈ 5.91 µM) | > 50 µg/mL | did not exhibit cytotoxicity | did not exhibit cytotoxicity |  |  |  |  | 
14 | CCCCCC/C=C\CCCCCCCc1cc(O)cc(O)c1C(=O)O [4f, Capricostatin F] | 6.3 µg/mL (≈ 17.4 µM) |  | > 100 µg/mL | 0.05 µg/mL (≈ 0.138 µM) |  | 0.8 µg/mL (≈ 2.21 µM) | > 200 µg/mL | 6.3 µg/mL (≈ 17.4 µM) |  |  |  |  |  |  | 
15 | CC1(C)S[C@@H]2[C@H](NC(=O)[C@H](N)c3ccccc3)C(=O)N2[C@H]1C(=O)O [ampicillin, reference compound] | > 100 µg/mL |  |  |  |  |  |  | 3.1 µg/mL (≈ 8.87 µM) |  |  | >100 µg/mL |  |  |  | 
16 | CN(CC[C@H](N)CC(=O)N[C@@H]1C=C[C@@H](n2ccc(N)nc2=O)O[C@H]1C(=O)O)C(=N)N.Cl [blasticidin S HCl, reference compound] |  |  |  |  |  |  |  |  |  |  |  | 3.1 µg/mL |  |  | 
17 | Cc1cc(O)cc(O)c1C(=O)O [compound 5, orsellinic acid] | > 100 µg/mL |  | > 100 µg/mL | > 100 µg/mL |  | > 100 µg/mL | > 200 µg/mL | > 100 µg/mL |  |  |  |  |  |  | 
18 | CCCCCCCCCCCCCCCc1cc(O)cc(O)c1 [compound 6, adipostatin] | 25 µg/mL (≈ 78 µM) |  | 6.3 µg/mL (≈ 19.7 µM) | 6.3 µg/mL (≈ 19.7 µM) |  | > 100 µg/mL | > 200 µg/mL | > 100 µg/mL |  |  |  |  |  |  | 
19 | CSC[S@+]([O-])C[C@H](CO)NC(=O)/C=C/c1c(C)[nH]c(=O)[nH]c1=O [sparsomycin, reference compound] |  |  |  |  |  |  |  |  |  |  |  |  | 1.7 µg/mL (≈ 4.7 µM) | 1.7 µg/mL (≈ 4.7 µM) | 
20 | CN(C)[C@@H]1C(O)=C(C(N)=O)C(=O)[C@@]2(O)C(O)=C3C(=O)c4c(O)cccc4[C@@](C)(O)[C@H]3C[C@@H]12 [tetracycline, reference compound] |  |  |  |  |  | 6.3 µg/mL (≈ 14.2 µM) |  |  |  |  |  |  |  |  | 
21 | geministatin D |  |  |  |  |  |  |  |  |  |  |  |  |  |  | displayed antifungal activity
